Measured values from doi:10.1101/2024.06.14.598950v1 (biorxiv, 2024).

What was measured:
Test in all cases: DTNB spectrophotometric assay, nonlinear regression
Format in all cases: biochemical, Brassica juncea
Settings in all cases: 30 °C
Bju.IPMS1-B1 = system: Bju.IPMS1-B1
Bju.IPMS1-A2 = system: Bju.IPMS1-A2
Bju.IPMS1-A1 = system: Bju.IPMS1-A1
Bju.IPMS1-B2 = system: Bju.IPMS1-B2

| Structure (SMILES) | Km (Bju.IPMS1-B1; 1 mM 2-oxoisovalerate) [µM] | Km (Bju.IPMS1-A2; 1 mM 2-oxoisovalerate) [µM] | Km (Bju.IPMS1-A1; 1 mM 2-oxoisovalerate) [µM] | Km (Bju.IPMS1-B2; 1 mM 2-oxoisovalerate) [µM] | Km (Bju.IPMS1-B1; 0.5 mM acetyl-CoA) [µM] | Km (Bju.IPMS1-A2; 0.5 mM acetyl-CoA) [µM] | Km (Bju.IPMS1-A1; 0.5 mM acetyl-CoA) [µM] | Km (Bju.IPMS1-B2; 0.5 mM acetyl-CoA) [µM] |
| --- | --- | --- | --- | --- | --- | --- | --- | --- |
| CC(=O)SCCNC(=O)CCNC(=O)[C@H](O)C(C)(C)COP(=O)(O)OP(=O)(O)OC[C@H]1O[C@@H](n2cnc3c(N)ncnc32)[C@H](O)[C@@H]1OP(=O)(O)O [acetyl-CoA] | 1260 ± 369 | 406 ± 75.9 | 770 ± 211 | 532 ± 91.9 |  |  |  |  |
| CC(C)C(=O)C(=O)O [2-oxoisovalerate, 3-methyl-2-oxobutanoate] |  |  |  |  | 217 ± 67.2 | 144 ± 40.9 | 158 ± 35.4 | 231 ± 47.1 |
